Source: patent US20260028673A1, “PR[…] OF TCF1+ […]-CELLS IN SEVERE COVID-19 AS MEDIATED BY INTERLEUKIN 12 (IL-12)” (priority 2022, published 2026)
Entries after “also recorded” stand apart in the source; their conditions may differ.

Legend:
[1] = system: IL-12 production; details: reference 51; cited from earlier work
[2] = system: COVID-19; details: reference 50; cited from earlier work
[3] = system: TCF-1; details: reference 67; transcriptional level, by inhibiting DNA methyltransferases; cited from earlier work
[4] = biological target: IL12p40 (Homo sapiens, UniProt P29460); assay type: cell-based; details: severe sera, 6 days, FIG. 9D
IL12p40, sequence (P29460 23-328): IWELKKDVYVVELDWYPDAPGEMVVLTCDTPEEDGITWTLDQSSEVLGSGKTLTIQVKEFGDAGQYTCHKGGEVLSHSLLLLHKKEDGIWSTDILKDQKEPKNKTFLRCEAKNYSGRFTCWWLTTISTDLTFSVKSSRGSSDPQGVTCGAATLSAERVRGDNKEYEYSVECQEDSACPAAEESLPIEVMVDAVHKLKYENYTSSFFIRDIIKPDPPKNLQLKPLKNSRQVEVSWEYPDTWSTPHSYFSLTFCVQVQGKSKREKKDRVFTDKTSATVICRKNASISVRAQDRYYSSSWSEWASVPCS
IL12p40, sequence (P29459 23-219, further chain): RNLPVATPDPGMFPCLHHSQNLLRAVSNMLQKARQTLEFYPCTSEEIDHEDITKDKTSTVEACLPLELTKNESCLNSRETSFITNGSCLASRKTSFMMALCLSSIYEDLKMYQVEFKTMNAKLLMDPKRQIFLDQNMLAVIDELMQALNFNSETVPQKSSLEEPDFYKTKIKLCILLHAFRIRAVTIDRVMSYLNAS

## C[C@@H]1C[C@H]2[C@@H]3CCC4=CC(=O)C=C[C@]4(C)[C@@]3(F)[C@@H](O)C[C@]2(C)[C@@]1(O)C(=O)CO [dexamethasone]
[1]
  IL-12 production: inhibits IL-12 production
[2]
  Success in treating COVID-19 patients: proven successful

## IL-12: proinflammatory cytokine interleukin 12
[3]
  TCF-1 (TCF1) expression: down-regulate TCF-1 at the transcriptional level; also recorded: downregulate TCF1
[4]
  TCF1 expression in naïve, TCM, TEM and TEMRA T-cell subsets: restored
